Usually IC50 stands for the concentration that gives 50% inhibition. A lower IC50 goes with greater potency in that assay. Usually EC50 stands for the midpoint of the concentration-response curve. The low end stands for higher potency in that assay, the high end for lower potency in that assay.

Here are results for 30 compounds from patent publication US20230227453A1 (priority 2020, published 2023).

Assay [1] deals with T1, 5-HT2C edited (accession number AAF35842.1) (Homo sapiens, UniProt P28335, I156V/I160V/N158S). In words: biochemical. Format: binding.
Target sequence in this assay (P28335 whole entry I156V/N158S/I160V, looked up): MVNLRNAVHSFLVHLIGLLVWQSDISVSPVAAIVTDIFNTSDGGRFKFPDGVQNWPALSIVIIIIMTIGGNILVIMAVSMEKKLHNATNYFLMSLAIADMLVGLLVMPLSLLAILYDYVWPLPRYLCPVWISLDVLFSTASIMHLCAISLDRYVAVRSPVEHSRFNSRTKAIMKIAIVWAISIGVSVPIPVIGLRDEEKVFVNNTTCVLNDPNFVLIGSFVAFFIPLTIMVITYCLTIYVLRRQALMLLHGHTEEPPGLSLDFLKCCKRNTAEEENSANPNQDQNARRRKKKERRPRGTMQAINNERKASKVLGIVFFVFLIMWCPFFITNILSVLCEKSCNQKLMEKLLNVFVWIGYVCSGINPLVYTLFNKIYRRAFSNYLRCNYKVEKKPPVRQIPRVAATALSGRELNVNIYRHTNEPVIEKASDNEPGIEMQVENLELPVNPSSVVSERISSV
Assay [2] deals with T1, 5-HT2C edited (accession number AAF35842.1). In words: cell-based.
Target sequence in this assay (P28335 33-458 I156V/N158S/I160V limits assumed): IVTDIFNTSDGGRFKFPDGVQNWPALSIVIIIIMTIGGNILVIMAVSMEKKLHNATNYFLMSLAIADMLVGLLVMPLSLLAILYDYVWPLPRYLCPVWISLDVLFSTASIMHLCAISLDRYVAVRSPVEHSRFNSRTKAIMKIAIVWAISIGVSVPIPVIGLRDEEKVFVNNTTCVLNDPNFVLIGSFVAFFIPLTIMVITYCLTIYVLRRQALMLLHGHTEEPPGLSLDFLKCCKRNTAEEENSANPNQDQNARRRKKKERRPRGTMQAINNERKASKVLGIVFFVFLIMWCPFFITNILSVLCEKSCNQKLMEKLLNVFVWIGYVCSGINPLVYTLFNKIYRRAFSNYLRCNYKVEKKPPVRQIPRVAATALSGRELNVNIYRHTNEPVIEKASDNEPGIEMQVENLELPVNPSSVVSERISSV

As to `Cc1ccc2c3c([nH]c2n1)CCNCC3` [Example 8, 2-methyl-5,6,7,8,9,10-hexahydropyrido[3′,2′:4,5]pyrrolo[2,3-d]azepine], the IC50 in assay [1] was 101 to 1000 nM. In assay [2], this compound showed an EC50 of 10 to 100 nM.
The like results for `Cc1ccc2c3c(n(C)c2n1)CCN(C)CC3` [Example 12, 2,7,10-trimethyl-5,6,7,8,9,10-hexahydropyrido[3′,2′:4,5]pyrrolo[2,3-d]azepine] were, in that order, 101 to 1000 nM and 101 to 1000 nM.
Consider `Clc1cnc2[nH]c3c(c2c1)CCN(C1COC1)CC3` [Example 27, 3-chloro-7-(oxetan-3-yl)-5,6,7,8,9,10-hexahydropyrido[3′,2′:4,5]pyrrolo[2,3-d]azepine], for which the IC50 in assay [1] was in the range of 101 to 1000 nM. The same compound displayed an EC50 in assay [2] of 101 to 1000 nM.
On to `Cn1c2c(c3cc(Cl)cnc31)CCNCC2` [Example 28, 3-chloro-10-methyl-5,6,7,8,9,10-hexahydropyrido[3′,2′:4,5]pyrrolo[2,3-d]azepine], for which the IC50 in assay [1] fell in the range of 10 to 100 nM. Further, the 50% effective concentration (EC50) in assay [2] was 10 to 100 nM.
In assay [1], `Clc1cnc2[nH]c3c(c2c1)CCNCC3` [Example 13, 3-chloro-5,6,7,8,9,10-hexahydropyrido[3′,2′:4,5]pyrrolo[2,3-d] azepine] had an IC50 of 10 to 100 nM. In assay [2], this compound registered an EC50 of under 10 nM.
In turn, `c1cnc2[nH]c3c(c2c1)CCN(C1COC1)CC3` [Example 22, 7-(oxetan-3-yl)-5,6,7,8,9,10-hexahydropyrido[3′,2′:4,5]pyrrolo[2,3-d]azepine] showed an IC50 in assay [1] of over 10000 nM. In addition, the EC50 in assay [2] lay in the range of 1000 to 10000 nM.
Consider `COc1ccc2c3c([nH]c2n1)CCNCC3` [Example 2, 2-methoxy-5,6,7,8,9,10-hexahydropyrido[3′,2′:4,5]pyrrolo[2,3-d]azepine], for which the IC50 in assay [1] fell in the range of 101 to 1000 nM. For the same compound, the EC50 in assay [2] lay in the range of 10 to 100 nM.
The like results for `Cn1c2c(c3cc(Cl)cnc31)CCN(C1COC1)CC2` [Example 29, 3-chloro-10-methyl-7-(oxetan-3-yl)-5,6,7,8,9,10-hexahydropyrido[3′,2′:4,5]pyrrolo[2,3-d]azepine] were, in that order, 1000 to 10000 nM and 1000 to 10000 nM.
Turning to `Cn1c2c(c3cccnc31)CCN(C1COC1)CC2` [Example 23, 10-methyl-7-(oxetan-3-yl)-5,6,7,8,9,10-hexahydropyrido[3′,2′:4,5]pyrrolo[2,3-d]azepine], the IC50 in assay [1] lay in the range of 1000 to 10000 nM. Moreover, the 50% effective concentration (EC50) in assay [2] was 1000 to 10000 nM.
In turn, `Cn1c2c(c3cccnc31)CCNCC2` [Example 18, 10-methyl-5,6,7,8,9,10-hexahydropyrido[3′,2′:4,5]pyrrolo[2,3-d]azepine] registered an IC50 in assay [1] of 10 to 100 nM. In addition, the EC50 in assay [2] is under 10 nM.
The compound `CN1CCc2c(n(C)c3ncccc23)CC1` [Example 21, 7,10-dimethyl-5,6,7,8,9,10-hexahydropyrido[3′,2′:4,5]pyrrolo[2,3-d]azepine] returned an IC50 in assay [1] of 10 to 100 nM. Further, the EC50 in assay [2] was in the range of 10 to 100 nM.
In assay [1], `CN1CCc2[nH]c3ncccc3c2CC1` [Example 20, 7-methyl-5,6,7,8,9,10-hexahydropyrido[3′,2′:4,5]pyrrolo[2,3-d]azepine] displayed a half-maximal inhibitory concentration (IC50) of 10 to 100 nM. This compound registered an EC50 in assay [2] of 10 to 100 nM.
For `COc1ccc2[nH]c3c(c2n1)CCN(C)CC3` [Example 15, 2-methoxy-8-methyl-5,6,7,8,9,10-hexahydropyrido[2′,3′:4,5]pyrrolo[2,3-d]azepine], the IC50 in assay [1] was 10 to 100 nM. Besides, the EC50 in assay [2] lay within 10 to 100 nM.
As for `Brc1ccc2c3c([nH]c2n1)CCNCC3` [Example 16, 2-bromo-5,6,7,8,9,10-hexahydropyrido[3′,2′:4,5]pyrrolo[2,3-d]azepine], in assay [1], the IC50 is 10 to 100 nM. The compound also had an EC50 in assay [2] of under 10 nM.
The like results for `COc1ccc2c3c(n(C)c2n1)CCN(C1COC1)CC3` [Example 6, 2-methoxy-10-methyl-7-(oxetan-3-yl)-5,6,7,8,9,10-hexahydropyrido[3′,2′:4,5]pyrrolo[2,3-d]azepine] were, in that order, 1000 to 10000 nM and 101 to 1000 nM.
In assay [1], `COc1ccc2c3c([nH]c2n1)CCN(C)CC3` [Example 1, 2-methoxy-7-methyl-5,6,7,8,9,10-hexahydropyrido[3′,2′:4,5]pyrrolo[2,3-d]azepine] gave an IC50 of 1000 to 10000 nM. The compound also showed an EC50 in assay [2] of 101 to 1000 nM.
The matching figures for `CN1CCc2[nH]c3ncc(Cl)cc3c2CC1` [Example 26, 3-chloro-7-methyl-5,6,7,8,9,10-hexahydropyrido[3′,2′:4,5]pyrrolo[2,3-d]azepine]: 10 to 100 nM and 10 to 100 nM.
For the compound `CN1CCc2c(n(C)c3ncc(Cl)cc23)CC1` [Example 30, 3-chloro-7,10-dimethyl-5,6,7,8,9,10-hexahydropyrido[3′,2′:4,5]pyrrolo[2,3-d]azepine], the IC50 in assay [1] lay within 10 to 100 nM. The compound also showed an EC50 in assay [2] of 10 to 100 nM.
Take `c1cnc2[nH]c3c(c2c1)CCNCC3` [Example 17, 5,6,7,8,9,10-hexahydropyrido[3′,2′:4,5] pyrrolo[2,3-d] azepine]: in assay [1], the IC50 lay in the range of 10 to 100 nM. For the same compound, in assay [2], the EC50 is under 10 nM.
The matching figures for `Brc1ccc2c3c([nH]c2n1)CCN(C1COC1)CC3` [Example 24, 2-bromo-7-(oxetan-3-yl)-5,6,7,8,9,10-hexahydropyrido[3′,2′:4,5]pyrrolo[2,3-d]azepine]: 101 to 1000 nM and 101 to 1000 nM.
The compound `Cc1ccc2c3c([nH]c2n1)CCN(C)CC3` [Example 7, 2,7-dimethyl-5,6,7,8,9,10-hexahydropyrido[3′,2′:4,5]pyrrolo[2,3-d]azepine] came in with an IC50 in assay [1] of 101 to 1000 nM. In assay [2], this compound registered an EC50 of 101 to 1000 nM.
For the compound `COc1ccc2c3c(n(C)c2n1)CCN(C)CC3` [Example 3, 2-methoxy-7,10-dimethyl-5,6,7,8,9,10-hexahydropyrido[3′,2′:4,5]pyrrolo[2,3-d]azepine], the IC50 in assay [1] fell in the range of 101 to 1000 nM. Besides, the EC50 in assay [2] was in the range of 101 to 1000 nM.
In turn, `Cc1ccc2c3c(n(C)c2n1)CCN(C1COC1)CC3` [Example 11, 2,10-dimethyl-7-(oxetan-3-yl)-5,6,7,8,9,10-hexahydropyrido[3′,2′:4,5]pyrrolo[2,3-d]azepine] yielded an IC50 in assay [1] of 1000 to 10000 nM. The EC50 in assay [2] was over 10000 nM.
The matching figures for `CN1CCc2[nH]c3nc(Br)ccc3c2CC1` [Example 19, 2-bromo-7-methyl-5,6,7,8,9,10-hexahydropyrido[3′,2′:4,5]pyrrolo[2,3-d]azepine]: 101 to 1000 nM and 10 to 100 nM.
With `Cn1c2c(c3ccc(Br)nc31)CCNCC2` [Example 25, 2-bromo-10-methyl-5,6,7,8,9,10-hexahydropyrido[3′,2′:4,5]pyrrolo[2,3-d]azepine], the 50% inhibitory concentration (IC50) in assay [1] was in the range of 10 to 100 nM. This compound also yielded an EC50 in assay [2] of under 10 nM.
In assay [1], `COc1ccc2c3c([nH]c2n1)CCN(C1COC1)CC3` [Example 4, 2-methoxy-7-(oxetan-3-yl)-5,6,7,8,9,10 hexahydropyrido[3′,2′:4,5]pyrrolo[2,3-d]azepine] displayed an IC50 of over 10000 nM. Also, in assay [2], the EC50 is over 10000 nM.
Consider `Cc1ccc2c3c([nH]c2n1)CCN(C1COC1)CC3` [Example 9, 2-methyl-7-(oxetan-3-yl)-5,6,7,8,9,10-hexahydropyrido[3′,2′:4,5]pyrrolo[2,3-d]azepine], for which the IC50 in assay [1] was over 10000 nM. This compound gave an EC50 in assay [2] of over 10000 nM.
In the case of `Cc1ccc2c3c(n(C)c2n1)CCNCC3` [Example 10, 2,10-dimethyl-5,6,7,8,9,10-hexahydropyrido[3′,2′:4,5]pyrrolo[2,3-d]azepine], in assay [1], the IC50 was 101 to 1000 nM. Besides, in assay [2], the EC50 is 10 to 100 nM.
`COc1cc2c3c([nH]c2cn1)CCN(C)CC3` [Example 14, 3-methoxy-7-methyl-5,6,7,8,9,10-hexahydropyrido[4′,3′:4,5]pyrrolo[2,3-d]azepine] returned an IC50 in assay [1] of over 10000 nM. Also, the EC50 in assay [2] is over 10000 nM.
Turning to `COc1ccc2c3c(n(C)c2n1)CCNCC3` [Example 5, 2-methoxy-10-methyl-5,6,7,8,9,10-hexahydropyrido[3′,2′:4,5]pyrrolo[2,3-d]azepine], the IC50 in assay [1] lay in the range of 10 to 100 nM. This compound also gave an EC50 in assay [2] of 10 to 100 nM.
